Measurements: patent publication US9669034B2, “4-aryl-N-phenyl-1,3,5-triazin-2-amines containing a sulfoximine group” (BAYER INTELLECTUAL PROPERTY GMBH, priority 2011, dated 2017)
Read-outs that look alike come from different tables or passages of the source.

Experiments:
[1] = test system: Caco-2 human colorectal carcinoma; test: Proliferation assay (crystal violet), Caco-2; format: cell-based; settings: Method 3, read-out: Inhibition of Caco-2 cell proliferation, IC50
Description: (§1) Cultivated tumour cells (NCI-H460, human non-small cell lung carcinoma cells, ATCC HTB-177; DU145, hormone-independent human prostate carcinoma cells, ATCC HTB-81; HeLa-MaTu, human cervical carcinoma cells, EPO-GmbH, Berlin; HeLa-MaTu-ADR, multidrug-resistant human cervical carcinoma cells, EPO-GmbH, Berlin; HeLa human cervical tumour cells, ATCC CCL-2; Caco-2 human colorectal carcinoma, ATCC HTB-37; B16F10 mouse melanoma cells, ATCC CRL-6475) were plated at a density of 5000 cells/well (DU145, HeLa-MaTu-ADR), 3000 cells/well (NCI-H460, HeLa-MaTu, HeLa), 1500 cells/well (Caco-2), or 1000 cells/well (B16 F10) in a 96-well multititer plate in 200 μL of their respective growth medium supplemented 10% fetal calf serum. After 24 hours, the cells of one plate (zero-point plate) were stained with crystal violet (see below), while the medium of the other plates was replaced by fresh culture medium (200 μL), to which the test substances were added in various concentrations (0 M, as well as in the range of […]; the final concentration of the solvent dimethylsulfoxide was 0.5%). The cells were incubated for 4 days in the presence of test substances. Cell proliferation was determined by staining the cells with crystal violet: the cells were fixed by adding 20 μL/measuring point of an 11% glutaric aldehyde solution for 15 minutes at room temperature. After three washing cycles of the fixed cells with water, the plates were dried at room temperature. The cells were stained by adding 100 μL/measuring point of a 0.1% crystal violet solution (pH 3.0). After three washing cycles of the stained cells with water, the plates were dried at room temperature. The dye was dissolved by adding 100 μL/measuring point of a 10% acetic acid solution. The absorbance was determined by photometry at a wavelength of 595 nm. The change of cell number, in percent, was calculated by normalization of the measured values to the absorbance values of the zero-point plate (=0%) and the absorbance of the untreated (0 M) cells (=100%). The IC50 values were determined by means of a 4 parameter fit.

[2] = test system: NCI-H460, human non-small cell lung carcinoma cells; test: Proliferation assay (crystal violet), NCI-H460; format: cell-based; settings: Method 3, read-out: Inhibition of NCI-H460 cell proliferation, IC50
Description: as §1

CDK9/CycT1 = CDK9/CycT1 (Homo sapiens (Human), UniProt P50750); test: CDK9/CycT1 kinase assay (TR-FRET); format: biochemical; settings: Method 1
Outline: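 Recombinant full-length His-tagged human CDK9/CycT1, insect-cell expressed and Ni-NTA purified. Substrate is a biotinylated peptide (biotin-Ttds-linked). Kinase inhibition is read out by TR-FRET.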

[3] = test system: HeLa human cervical tumour cells; test: Proliferation assay (crystal violet), HeLa; format: cell-based; settings: Method 3, read-out: Inhibition of HeLa cell proliferation, IC50
Outline: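 Cells were seeded at 3000/well (NCI-H460, HeLa), 5000/well (HeLa-MaTu-ADR) or 1500/well (Caco-2) in medium with 10% FCS. After 24 h, compounds ([…], 0.5% DMSO) were added for 4 days. Crystal violet absorbance at 595 nm was normalized to a zero-point plate and untreated cells; IC50 came from a 4-parameter fit.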

[4] = test system: B16F10 mouse melanoma cells; test: Proliferation assay (crystal violet), B16F10; format: cell-based; settings: Method 3, read-out: Inhibition of B16F10 cell proliferation, IC50
Description: as §1

[5] = test system: HeLa-MaTu-ADR, multidrug-resistant human cervical carcinoma cells; test: Proliferation assay (crystal violet), HeLa-MaTu-ADR; format: cell-based; settings: Method 3, read-out: Inhibition of HeLa/MaTu/ADR cell proliferation, IC50
Description: as §1

CDK2/CycE = CDK2/CycE (Homo sapiens (Human), UniProt P24941); test: CDK2/CycE kinase assay (TR-FRET); format: biochemical; settings: Method 2
Outline: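 Enzyme was GST-tagged human CDK2 with GST-tagged human CycE, expressed in Sf9 insect cells and glutathione-affinity purified. The kinase reaction used a biotinylated peptide substrate, with inhibition measured by TR-FRET.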

[6] = test system: DU145, hormone-independent human prostate carcinoma cells; test: Proliferation assay (crystal violet), DU145; format: cell-based; settings: Method 3, read-out: Inhibition of DU145 cell proliferation, IC50
Description: as §1

[7] = Homo sapiens, Caco-2, Caco-2 cells
[8] = Homo sapiens, NCI-H460, NCI-H460 cells
[9] = Mus musculus, B16-F10, B16F10 cells
[10] = Homo sapiens, DU-145, DU145 cells

CDK9/CycT1, sequence (P50750 whole entry): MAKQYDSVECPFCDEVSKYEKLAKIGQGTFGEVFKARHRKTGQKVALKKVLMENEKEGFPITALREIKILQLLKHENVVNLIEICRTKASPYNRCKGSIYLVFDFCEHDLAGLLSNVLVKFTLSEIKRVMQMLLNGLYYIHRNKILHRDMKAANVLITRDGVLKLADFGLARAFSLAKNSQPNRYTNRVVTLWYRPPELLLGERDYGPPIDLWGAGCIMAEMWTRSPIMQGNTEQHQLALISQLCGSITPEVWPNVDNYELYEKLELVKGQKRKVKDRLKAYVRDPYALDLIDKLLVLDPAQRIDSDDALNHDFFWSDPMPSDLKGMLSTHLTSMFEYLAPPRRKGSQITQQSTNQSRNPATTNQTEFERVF
CDK9/CycT1, sequence (O60563 whole entry partner): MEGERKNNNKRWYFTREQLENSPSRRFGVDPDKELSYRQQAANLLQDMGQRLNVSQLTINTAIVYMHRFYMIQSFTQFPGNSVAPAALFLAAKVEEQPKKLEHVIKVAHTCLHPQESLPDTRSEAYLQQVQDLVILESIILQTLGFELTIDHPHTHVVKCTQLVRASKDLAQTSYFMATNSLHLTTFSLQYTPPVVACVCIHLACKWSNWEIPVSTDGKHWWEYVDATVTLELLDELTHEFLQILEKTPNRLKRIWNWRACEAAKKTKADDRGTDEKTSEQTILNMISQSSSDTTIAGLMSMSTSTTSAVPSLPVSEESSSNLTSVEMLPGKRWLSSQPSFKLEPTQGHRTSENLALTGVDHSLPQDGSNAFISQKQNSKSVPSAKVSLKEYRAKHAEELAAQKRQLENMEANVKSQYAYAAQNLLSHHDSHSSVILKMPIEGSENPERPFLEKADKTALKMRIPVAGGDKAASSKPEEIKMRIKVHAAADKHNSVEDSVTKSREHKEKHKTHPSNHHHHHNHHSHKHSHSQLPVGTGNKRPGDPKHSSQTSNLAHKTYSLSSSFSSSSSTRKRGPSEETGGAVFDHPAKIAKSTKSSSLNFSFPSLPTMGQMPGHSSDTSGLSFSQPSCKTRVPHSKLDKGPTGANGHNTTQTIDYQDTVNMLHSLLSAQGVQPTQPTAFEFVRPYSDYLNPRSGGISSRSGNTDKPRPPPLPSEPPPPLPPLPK

SMILES	IC50 ([1]; Caco-2 cells)	IC50 ([2]; NCI-H460 cells)	IC50 (CDK9/CycT1)	IC50 [3]	IC50 ([4]; B16F10 cells)	IC50 [5]	IC50 (CDK2/CycE)	IC50 ([6]; DU145 cells)	IC50 [1, 7]	IC50 [2, 8]	IC50 ([3]; Homo sapiens, HeLa)	IC50 [4, 9]	IC50 ([5]; Homo sapiens, HeLa)	IC50 [6, 10]
CS(=N)(=O)Cc1cccc(Nc2ncnc(-c3ccc(F)cc3OCc3ccc(F)cc3)n2)c1 (single isomer, unassigned) [Example 56.b, 4-{4-Fluoro-2-[(4-fluorobenzyl)oxy]phenyl}-N-{3-[(S-methylsulfonimidoyl)methyl]phenyl}-1,3,5-triazin-2-amine]	0.54 µM	0.47 µM	0.005 µM	0.54 µM	0.39 µM	0.54 µM	0.56 µM	0.4 µM						
C=C(C)COc1cc(F)ccc1-c1ncnc(Nc2cccc(CS(C)(=N)=O)c2)n1 (racemic) [Example 99, (rac)-4-{4-Fluoro-2-[(2-methylprop-2-en-1-yl)oxy]phenyl}-N-{3-[(S-methylsulfonimidoyl)methyl]phenyl}-1,3,5-triazin-2-amine]			0.002 µM				0.25 µM		0.23 µM	0.15 µM	0.12 µM	0.2 µM	0.18 µM	0.12 µM
CS(=N)(=O)Cc1cccc(Nc2ncnc(-c3ccccc3OCc3ccc(F)cc3)n2)c1 (racemic) [Example 43, (rac)-4-{2-[(4-Fluorobenzyl)oxy]phenyl}-N-{3-[(S-methylsulfonimidoyl)methyl]phenyl}-1,3,5-triazin-2-amine]			0.009 µM				1.9 µM		1.1 µM	0.53 µM	0.59 µM	0.8 µM	1.1 µM	0.8 µM
C/C=C\COc1cc(F)ccc1-c1ncnc(Nc2cccc(CS(C)(=N)=O)c2)n1 (racemic) [Example 102, (rac)-4-{2-[(2Z)-But-2-en-1-yloxy]-4-fluorophenyl}-N-{3-[(S-methylsulfonimidoyl)methyl]phenyl}-1,3,5-triazin-2-amine]			0.007 µM				0.8 µM		0.16 µM	0.15 µM	0.34 µM	0.14 µM	0.14 µM	0.095 µM
CS(=N)(=O)Cc1cccc(Nc2ncnc(-c3ccc(F)cc3OCc3cccc(Cl)c3)n2)c1 (racemic) [Example 92, (rac)-4-{2-[(3-Chlorobenzyl)oxy]-4-fluorophenyl}-N-{3-[(S-methylsulfonimidoyl)methyl]phenyl}-1,3,5-triazin-2-amine]			0.004 µM				0.25 µM		0.43 µM	0.17 µM	0.47 µM	0.39 µM	0.36 µM	0.38 µM
C#CCOc1cc(F)ccc1-c1ncnc(Nc2cccc(CS(C)(=N)=O)c2)n1 (single isomer, unassigned) [Example 78, 4-[4-Fluoro-2-(prop-2-yn-1-yloxy)phenyl]-N-{3-[(S-methylsulfonimidoyl)methyl]phenyl}-1,3,5-triazin-2-amine]			0.009 µM				0.58 µM		0.76 µM	0.39 µM	0.65 µM	0.5 µM	0.26 µM	0.37 µM
COc1cc(F)ccc1-c1ncnc(Nc2cc(F)cc(CS(C)(=O)=NC#N)c2)n1 (single isomer, unassigned) [Example 71, [(3-Fluoro-5-{[4-(4-fluoro-2-methoxyphenyl)-1,3,5-triazin-2-yl]amino}benzyl)(methyl)oxido-λ^6-sulfanylidene]cyanamide]			0.006 µM				0.23 µM		0.13 µM	0.16 µM	0.1 µM	0.11 µM	0.12 µM	0.12 µM
COc1cc(F)ccc1-c1ncnc(Nc2cc(C)cc(CS(C)(=O)=NC#N)c2)n1 (racemic) [Example 111, (rac)-[(3-{[4-(4-Fluoro-2-methoxyphenyl)-1,3,5-triazin-2-yl]amino}-5-methylbenzyl)(methyl)oxido-λ^6-sulfanylidene]cyanamide]			0.003 µM				0.25 µM		0.22 µM	0.27 µM	0.1 µM	0.13 µM	0.17 µM	0.11 µM
COc1cc(F)ccc1-c1ncnc(Nc2cc(F)cc(CS(C)(=O)=NC#N)c2)n1 (racemic) [Example 70, (rac)-[(3-Fluoro-5-{[4-(4-fluoro-2-methoxyphenyl)-1,3,5-triazin-2-yl]amino}benzyl)(methyl)oxido-λ^6-sulfanylidene]cyanamide]			0.006 µM				0.18 µM		0.17 µM	0.23 µM	0.15 µM	0.13 µM	0.12 µM	0.079 µM
CCOC(=O)N=S(C)(=O)Cc1cccc(Nc2ncnc(-c3cccc4c3OCCO4)n2)c1 (racemic) [Example 37, (rac)-Ethyl [(3-{[4-(2,3-dihydro-1,4-benzodioxin-5-yl)-1,3,5-triazin-2-yl]amino}benzyl)(methyl)oxido-λ^6-sulfanylidene]carbamate]			0.009 µM				2.3 µM		0.81 µM	0.92 µM	0.63 µM	0.72 µM	0.75 µM	0.5 µM
COc1cc(F)ccc1-c1ncnc(Nc2cccc(CS(C)(=O)=NC#N)c2)n1 (racemic) [Example 48, (rac)-[(3-{[4-(4-fluoro-2-methoxyphenyl)-1,3,5-triazin-2-yl]amino}benzyl)(methyl)oxido-λ^6-sulfanylidene]cyanamide]			0.013 µM				0.63 µM		0.42 µM	0.41 µM	0.33 µM	0.32 µM	0.4 µM	0.28 µM
CS(=N)(=O)Cc1cccc(Nc2ncnc(-c3ccc(F)cc3OCc3cc(F)cc(F)c3F)n2)c1 (racemic) [Example 101, (rac)-4-{4-Fluoro-2-[(2,3,5-trifluorobenzyl)oxy]phenyl}-N-{3-[(S-methylsulfonimidoyl)methyl]phenyl}-1,3,5-triazin-2-amine]			0.004 µM				0.5 µM		0.24 µM	0.36 µM	0.33 µM	0.34 µM	0.35 µM	0.34 µM
CCS(=O)(Cc1cccc(Nc2ncnc(-c3ccc(F)cc3OC)n2)c1)=NC#N (racemic) [Example 107, (rac)-[Ethyl(3-{[4-(4-fluoro-2-methoxyphenyl)-1,3,5-triazin-2-yl]amino}benzyl)oxido-λ^6-sulfanylidene]cyanamide]			0.004 µM				0.36 µM		0.5 µM	0.45 µM	0.23 µM	0.3 µM	0.34 µM	0.28 µM
